Earlier results in patent publication US20060078922A1, “Novel purified polypeptides from haemophilus influenzae” (Affinium Pharmaceuticals, Inc., priority 2003, published 2006).

Molecular target: phosphopantetheine adenyltransferase (Escherichia coli, UniProt P0A6I6)
Conditions: qualitative statement, species not given

Sequence of phosphopantetheine adenyltransferase (P0A6I6 whole entry): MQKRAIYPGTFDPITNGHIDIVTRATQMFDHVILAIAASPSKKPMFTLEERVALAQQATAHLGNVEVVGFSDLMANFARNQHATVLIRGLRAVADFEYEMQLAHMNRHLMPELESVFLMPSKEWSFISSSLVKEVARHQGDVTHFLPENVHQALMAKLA

Structure (SMILES): CC(C)(COP(=O)(O)OP(=O)(O)OC[C@H]1O[C@@H](n2cnc3c(N)ncnc32)[C@H](O)[C@@H]1OP(=O)(O)O)[C@@H](O)C(=O)NCCC(=O)NCCS [Coenzyme-A]
- inhibition of phosphopantetheine adenyltransferase: known to inhibit
